These results are taken from US7884122B2, “Extended release formulation and method of treating adrenergic dysregulation” (Shionogi Pharma, Inc., priority 2007, dated 2011).

In general, EC50 refers to the concentration needed to bring the measured effect to its halfway point. A higher EC50 goes with a less potent agent. As a reminder, the EC90 is the point of the concentration-response curve where the effect stands at 90%. A high value points to a need for much substance.

The conditions of data set [1]: traditional oral formulation of clonidine; cited from earlier work.
The test system of data set [2] is systolic and diastolic blood pressure. Kind of data set: animal or person. Particulars: Homo sapiens, 600 h, Systolic BP vs AUCτ at Day 25, sigmoidal Emax model. On the procedure:
Mean baseline ABPM data for the three treatment groups were compared with mean data obtained on Day 26 (last day of treatment) and on Days 27 and 28. A more detailed PK/PD analysis was conducted by using the individual patient ABPM data to compare the blood pressure profile at Baseline and on Day 26 of treatment. The daytime (0- to 12-hour) intervals were used in the analysis, since pharmacokinetic data were collected on Day 25, over the daytime 12-hour dosing interval at steady state. In order to investigate the maintenance of effect at the tail end of the inter-dosing interval, differences between the SBP, DBP, and HR values at Baseline and the last two hours in the inter-dosing interval (Hours 11 and 12) on Day 26 were calculated for each patient. Paired t-tests were performed to test the significance of these differences between Baseline and the last two measuring times. The approach taken to quantify the effects of clonidine on blood pressure was to calculate the difference between the areas under the BP vs. time curves (AUCBP) at Baseline and on Day 26. These values were used to relate the pharmacodynamic effect to dose, as well as to conduct the PK/PD analyses.
Pharmacokinetic-pharmacodynamic modeling was conducted using the blood pressure response data and the Cmax, Cmin and AUCτ values at Day 25 of dosing. […]

The structures appear in SMILES notation. Converted amounts (≈) assume the structure as drawn.

Take `Clc1cccc(Cl)c1N=C1NCCN1` [clonidine, 2,6-dichloro-N-2-imidazolidinylidene benzeneamine]: the biological half-life entry in data set [1] is recorded as “about four to six hours”. In data set [2], this molecule had an EC50 of 4.7 ng/mL (≈ 0.0204 µM) and an EC90 of 6.69 ng/mL (≈ 0.0291 µM).
